From patent publication US20120053148A1, “INHIBITORS OF HEPATITIS C VIRUS” (GILEAD SCIENCES, INC., priority 2010, published 2012)

These compounds were tested on HCV Replicon IB (assay: HCV replicon assay in Huh-7 cells, genotype 1b (Rluc luciferase readout)). Details: Hepatitis C virus, 72 h; 10 uM; 1b-Rluc replicon, Huh-7 cells, 3 days; read-out: Inhibition @ 10 uM in 1b-Rluc.
Assay type: cell-based, hepatitis C virus
For `Cc1cc(C(=O)NCc2ccccn2)nc2c(C(F)(F)F)cc(C(C)C)cc12` [Compound 157], the inhibition at 10 µM was 98.8%.
`CCc1cc(C(F)(F)F)c2nc(C(=O)NCc3ccccn3)cc(C)c2c1` [Compound 158] showed an inhibition at 10 µM of 98.9%.
`CC(=O)c1cc(C(F)(F)F)c2nc(C(=O)NCc3ccccn3)cc(C)c2c1` [Compound 160] gave an inhibition at 10 µM of 93.5%.
`Cc1cc(C(=O)NCc2ccccn2)nc2c(C(F)(F)F)cc(C(C)(C)O)cc12` [Compound 161] was tested, and the inhibition at 10 µM was 76.7%.
In the case of `Cc1cc(C(=O)NCC(C)(C)C#N)nc2c(C(F)(F)F)cc(-c3ccccc3)cc12` [Compound 162], the inhibition at 10 µM is reported as 80.5%.
`Cc1cc(C(=O)NCC2(O)CC2)nc2c(C(F)(F)F)cc(-c3ccccc3)cc12` [Compound 163] was tested, and the inhibition at 10 µM was 98.3%.
`Cc1cc(C(=O)NCCCO)nc2c(C(F)(F)F)cc(-c3ccccc3)cc12` [Compound 164] was tested, and the inhibition at 10 µM was 94.6%.
`CCC(O)CNC(=O)c1cc(C)c2cc(-c3ccccc3)cc(C(F)(F)F)c2n1` (centres unmarked) [Compound 165] was tested, and the inhibition at 10 µM was 96.5%.
Work on `Cc1cc(C(=O)NCCO)nc2c(C(F)(F)F)cc(-c3ccccc3)cc12` [Compound 166] yielded an inhibition at 10 µM of 93.8%.
`Cc1cc(C(=O)NC(CO)c2ccccc2)nc2c(C(F)(F)F)cc(-c3ccccc3)cc12` (centres unmarked) [Compound 167] showed an inhibition at 10 µM of 87.5%.
Work on `Cc1cc(C(=O)NCC(O)c2ccccc2)nc2c(C(F)(F)F)cc(-c3ccccc3)cc12` (centres unmarked) [Compound 168] yielded an inhibition at 10 µM of 86.4%.
In the case of `Cc1cc(C(=O)NCC(O)Cc2ccccc2)nc2c(C(F)(F)F)cc(-c3ccccc3)cc12` (centres unmarked) [Compound 169], the inhibition at 10 µM is reported as 93%.
Compound `Cc1cc(C(=O)NC/C=C/c2ccccc2)nc2c(C(F)(F)F)cc(-c3ccccc3)cc12` [Compound 170] has an inhibition at 10 µM of 66.4%.
`Cc1cc(C(=O)N/C=C/Cc2ccccc2)nc2c(C(F)(F)F)cc(-c3ccccc3)cc12` [Compound 171] was tested, and the inhibition at 10 µM was 92.5%.
Work on `Cc1cc(C(=O)NCC2CCCCC2)nc2c(C(F)(F)F)cc(-c3ccccc3)cc12` [Compound 172] yielded an inhibition at 10 µM of 95.2%.
`O=C(NCc1ccccn1)c1cnc2cc(-c3ccccc3)cc(C(F)(F)F)c2n1` [Compound 173] was tested, and the inhibition at 10 µM was 86.3%.
With `C=Cc1cc(C(=O)NCc2cccs2)nc2c(C(F)(F)F)cc(-c3ccccc3)cc12` [Compound 174] the inhibition at 10 µM was 63.6%.
Compound `N#Cc1cc(-c2nnc(Nc3ccccc3)o2)nc2c(C(F)(F)F)cc(-c3ccccc3)cc12` [Compound 175] has an inhibition at 10 µM of 89.3%.
Compound `CCCCN(C)c1cc(C(F)(F)F)c2nc(C(=O)NCc3ccccn3)cc(C)c2c1` [Compound 176] has an inhibition at 10 µM of 80.4%.
`CC(=O)Nc1cc(C(F)(F)F)c2nc(C(=O)NCc3ccccn3)cc(C)c2c1` [Compound 177] gave an inhibition at 10 µM of 94.7%.
With `Cc1cc(C(=O)NCc2ccccn2)nc2c(C(F)(F)F)cc(N)cc12` [Compound 178] the inhibition at 10 µM was 86.9%.
Compound `Cc1cc(C(=O)NCc2ccccn2)nc2c(C(F)(F)F)cc(N(C)S(C)(=O)=O)cc12` [Compound 179] has an inhibition at 10 µM of 98.9%.
Compound `CC(=O)N(C)c1cc(C(F)(F)F)c2nc(C(=O)NCc3ccccn3)cc(C)c2c1` [Compound 180] has an inhibition at 10 µM of 65.5%.
In the case of `CNc1cc(C(F)(F)F)c2nc(C(=O)NCc3ccccn3)cc(C)c2c1` [Compound 181], the inhibition at 10 µM is reported as 99.4%.
`COc1cc(C(F)(F)F)c2nc(C(=O)NCc3ccccn3)cc(C)c2c1` [Compound 182] was tested, and the inhibition at 10 µM was 99.3%.
Compound `CCCCOc1cc(C(F)(F)F)c2nc(C(=O)NCc3ccccn3)cc(C)c2c1` [Compound 183] has an inhibition at 10 µM of 88.8%.
`Cc1cc(C(=O)NCc2ccccn2)nc2c(C(F)(F)F)cc(OC3CCCC3)cc12` [Compound 184] gave an inhibition at 10 µM of 96%.
`Cc1cc(C(=O)NCc2ccccn2)nc2c(C(F)(F)F)cc(OC(F)F)cc12` [Compound 187] was tested, and the inhibition at 10 µM was 99.9%.
For `Cc1cc(C(=O)NCc2ccccn2)nc2c(C(F)(F)F)cc(OCC(F)(F)F)cc12` [Compound 189], the inhibition at 10 µM was 99.8%.
In the case of `Cc1cc(C(=O)NC[C@H]2CC(F)(F)CN2)nc2c(C(F)(F)F)cc(OC(F)F)cc12` [Compound 190], the inhibition at 10 µM is reported as 94.7%.
`Cc1cc(C(=O)NC[C@@H]2CC(O)CN2)nc2c(C(F)(F)F)cc(OC(F)F)cc12` (some centres unmarked) [Compound 191] showed an inhibition at 10 µM of 50.2%.
Compound `O=C(NCc1ccccn1)c1cc(Cl)c2cc(OC(F)F)cc(C(F)(F)F)c2n1` [Compound 194] has an inhibition at 10 µM of 99.5%.
Work on `Nc1cc(C(=O)NCc2cccc(F)n2)nc2c(C(F)(F)F)cc(OC(F)F)cc12` [Compound 195] yielded an inhibition at 10 µM of 99.7%.
`O=C(NCC1C[S+]([O-])CCN1)c1cc(Cl)c2cc(OC(F)F)cc(C(F)(F)F)c2n1` (centres unmarked) [Compound 196] gave an inhibition at 10 µM of 55%.
Compound `O=C(NCC1CS(=O)(=O)CCN1)c1cc(Cl)c2cc(OC(F)F)cc(C(F)(F)F)c2n1` (centres unmarked) [Compound 197] has an inhibition at 10 µM of 92.8%.
`Nc1cc(C(=O)NCC2CS(=O)(=O)CCN2)nc2c(C(F)(F)F)cc(OC(F)F)cc12` (centres unmarked) [Compound 198] gave an inhibition at 10 µM of 98.4%.
`CCC(O)CNC(=O)c1cc(Cl)c2cc(OC(F)F)cc(C(F)(F)F)c2n1` (centres unmarked) [Compound 204] showed an inhibition at 10 µM of 95.5%.
Work on `CCC(=O)CNC(=O)c1cc(Cl)c2cc(OC(F)F)cc(C(F)(F)F)c2n1` [Compound 205] yielded an inhibition at 10 µM of 99.2%.
`CCC(CNC(=O)c1cc(Cl)c2cc(OC(F)F)cc(C(F)(F)F)c2n1)=NOC` [Compound 206] showed an inhibition at 10 µM of 64%.
`O=C(NCc1ccccn1)c1cc(Cl)c2cc(C3CC3)cc(C(F)(F)F)c2n1` [Compound 210] gave an inhibition at 10 µM of 99.9%.
With `O=C(NCC1(O)CC1)c1cc(Cl)c2cc(C3CC3)cc(C(F)(F)F)c2n1` [Compound 211] the inhibition at 10 µM was 94.8%.
In the case of `O=C(NCC1COCCN1)c1cc(C(F)F)c2cc(C3CC3)cc(C(F)(F)F)c2n1` (centres unmarked) [Compound 213], the inhibition at 10 µM is reported as 88.7%.
For `O=C(NCc1ccccn1)c1cc(C2CC2)c2cc(C3CC3)cc(C(F)(F)F)c2n1` [Compound 214], the inhibition at 10 µM was 92.6%.
Compound `N#Cc1cc(C(=O)NCc2ccccn2)nc2c(C(F)(F)F)cc(C3CC3)cc12` [Compound 215] has an inhibition at 10 µM of 99.4%.
`CNc1cc(C(=O)NCc2ccccn2)nc2c(C(F)(F)F)cc(C3CC3)cc12` [Compound 216] showed an inhibition at 10 µM of 98.2%.
`O=C(NCC1COCCN1)c1cc(O)c2cc(C3CC3)cc(C(F)(F)F)c2n1` (centres unmarked) [Compound 217] showed an inhibition at 10 µM of 77%.
`Nc1cc(C(=O)NCC2COCCN2)nc2c(C(F)(F)F)cc(C3CC3)cc12` (centres unmarked) [Compound 218] gave an inhibition at 10 µM of 99.9%.
`CCC(=O)CNC(=O)c1cc(N)c2cc(C3CC3)cc(C(F)(F)F)c2n1` [Compound 220] was tested, and the inhibition at 10 µM was 100%.
Compound `Nc1cc(C(=O)NCC2(O)CC2)nc2c(C(F)(F)F)cc(C3CC3)cc12` [Compound 221] has an inhibition at 10 µM of 98.8%.
Compound `CS(=O)(=O)Nc1nc(C(=O)NCc2cccs2)nc2c(C(F)(F)F)cc(-c3ccccc3)cc12` [Compound 222] has an inhibition at 10 µM of 95.1%.
For `Cc1cc(C(=O)NCc2ccccn2)nc2c(C(C)(C)C)cc(C3CC3)cc12` [Compound 226], the inhibition at 10 µM was 100%.
For `CC(C)(C)c1cc(C2CC2)cc2c(O)cc(C(=O)NCc3ccccn3)nc12` [Compound 227], the inhibition at 10 µM was 100%.
`CC(C)(C)c1cc(C2CC2)cc2c(Cl)cc(C(=O)NCC3COCCN3)nc12` (centres unmarked) [Compound 228] was tested, and the inhibition at 10 µM was 94.7%.
For `CC(C)(C)c1cc(C2CC2)cc2c(Cl)cc(C(=O)NCc3ccccn3)nc12` [Compound 229], the inhibition at 10 µM was 100%.
`CC(C)(C)c1cc(C2CC2)cc2c(N)cc(C(=O)NCc3ccccn3)nc12` [Compound 230] gave an inhibition at 10 µM of 100%.
`O=C(NCc1ccccn1)c1cc(Cl)c2cc(C3CC3)cc(OC(F)(F)F)c2n1` [Compound 233] was tested, and the inhibition at 10 µM was 100%.
`Cc1cc(C(=O)NCc2ccccn2)nc2c(OC(F)(F)F)cc(C3CC3)cc12` [Compound 234] was tested, and the inhibition at 10 µM was 100%.
Work on `Nc1cc(C(=O)NCc2ccccn2)nc2c(OC(F)(F)F)cc(C3CC3)cc12` [Compound 235] yielded an inhibition at 10 µM of 100%.
For `O=C(NCc1ccccn1)c1cc(Cl)c2cc(OC(F)(F)F)cc(Br)c2n1` [Compound 236], the inhibition at 10 µM was 86.4%.
Work on `C#Cc1cc(OC(F)(F)F)cc2c(O)cc(C(=O)NCc3ccccn3)nc12` [Compound 237] yielded an inhibition at 10 µM of 21.7%.
`C#Cc1cc(OC(F)(F)F)cc2c(Cl)cc(C(=O)NCc3ccccn3)nc12` [Compound 238] gave an inhibition at 10 µM of 9.91%.
In the case of `O=C(NCc1ccccn1)c1cc(O)c2cc(OC(F)(F)F)cc(-c3cccc4[nH]ncc34)c2n1` [Compound 239], the inhibition at 10 µM is reported as 49.3%.
For `O=C(NCc1ccccn1)c1cc(Cl)c2cc(OC(F)(F)F)cc(/C=C/c3ccccc3)c2n1` [Compound 240], the inhibition at 10 µM was 42.2%.
For `O=C(NCc1ccccn1)c1cc(Cl)c2cc(OC(F)(F)F)cc(C(=O)O)c2n1` [Compound 241], the inhibition at 10 µM was 7.94%.
`Cc1cc(-c2nnc(Nc3ccccc3)o2)nc2c(C(F)(F)F)cc(C3CC3)cc12` [Compound 242] gave an inhibition at 10 µM of 100%.
With `Cc1cc(-c2nnc(N)o2)nc2c(C(F)(F)F)cc(C3CC3)cc12` [Compound 243] the inhibition at 10 µM was 88.4%.
With `CCCCNc1nnc(-c2cc(C)c3cc(C4CC4)cc(C(F)(F)F)c3n2)o1` [Compound 244] the inhibition at 10 µM was 100%.
`COCCCNc1nnc(-c2cc(C)c3cc(C4CC4)cc(C(F)(F)F)c3n2)o1` [Compound 245] was tested, and the inhibition at 10 µM was 100%.
`Cc1cc(-c2nnc(NCC3OCCO3)o2)nc2c(C(F)(F)F)cc(C3CC3)cc12` [Compound 246] gave an inhibition at 10 µM of 100%.
Work on `Cc1cc(-c2nnc(NCC3(C)OCCO3)o2)nc2c(C(F)(F)F)cc(C3CC3)cc12` [Compound 247] yielded an inhibition at 10 µM of 100%.
In the case of `Cc1cc(-c2nnc(NCC(=O)N(C)C)o2)nc2c(C(F)(F)F)cc(C3CC3)cc12` [Compound 248], the inhibition at 10 µM is reported as 99.9%.
Compound `Cc1cc(-c2nnc(NCCCO)o2)nc2c(C(F)(F)F)cc(C3CC3)cc12` [Compound 249] has an inhibition at 10 µM of 100%.
In the case of `Cc1cc(-c2nnc(NCC3COCCO3)o2)nc2c(C(F)(F)F)cc(C3CC3)cc12` (centres unmarked) [Compound 250], the inhibition at 10 µM is reported as 99.9%.
For `Cc1cc(-c2nnc(NCCCN3CCOCC3)o2)nc2c(C(F)(F)F)cc(C3CC3)cc12` [Compound 251], the inhibition at 10 µM was 80.9%.
With `Cc1cc(-c2nnc(NCC3COCCN3)o2)nc2c(C(F)(F)F)cc(C3CC3)cc12` (centres unmarked) [Compound 252] the inhibition at 10 µM was 92.7%.
Work on `CCOCCOCCOCCCNc1nnc(-c2cc(C)c3cc(C4CC4)cc(C(F)(F)F)c3n2)o1` [Compound 253] yielded an inhibition at 10 µM of 80%.
Work on `Cc1cc(-c2nnc(NCc3ccccn3)o2)nc2c(C(F)(F)F)cc(C3CC3)cc12` [Compound 254] yielded an inhibition at 10 µM of 99.7%.
